Laboratory results reported in patent EP1951725B1, “N-SULFAMOYL-N -BENZOPYRANPIPERIDINES AS INHBITORS OF CARBONIC ANHYDRASES” (Abbott Products GmbH, priority 2005, dated 2007).

Assays:
[1] = Acute in vivo food intake test in mice; conditions: 24h food intake, male or female C57BI/6 mice, high caloric diet, oral gavage 100 mg/kg/day in two half doses
Procedure: 2. Acute in vivo food intake test in mice
The studies were carried out in male or female C57BI/6 mice (n=8-12 per group). The mice were kept on an inverted 12/12h light/dark cycle (lights on 22:00). They were allowed food (high caloric diet) and water ad libitum. Food intake and water consumption was measured daily. The test compound of general Formula I was suspended in 1% methylcellulose in water and 2% (v/v) of Poloxamer 188 (Lutrol F68®) and administered by oral gavage at a dose of 100 mg/kg/day. One half of the dose was administered at 7.00-9.00 h; the remaining half of the dose was administered between 15.00-15.30 h.
In the test model described above, the test substances caused a decrease of the animals' 24h food intake to the percentages of food intake when compared to control as given in Table 2 below. Table 2: Influence of test substances on food intake

[2] = biological target: T1, human carbonic anhydrase isoenzyme II (hCA II) (Homo sapiens, UniProt P00918); experiment: biochemical; type: binding; conditions: hCA II from erythrocytes 10^-7 M/L, dansylamide 2.25x10^-6, pH 7.4, 60 min preincubation, read at 60 min at 37°C, single measurements
T1 construct: human carbonic anhydrase isoenzyme II from erythrocytes (Sigma-Aldrich); purchased Sigma-Aldrich; host or cells: human erythrocytes (natural source)
Procedure: 1. In vitro inhibition of human carbonic anhydrase isoenzyme II (hCA II)
The test compounds of general Formula I in 96 well microplates were diluted with aqua bidest by using an automatic pipettor (CyBiWell®). From the different dilution plates, aliquots of 20 µl were transferred to the 96 well black assay plates with a pipetting station (Tecan Genesis®). In a second step, 148 µl of potassium phosphate buffer (20 mM, pH 7.4) was added, and as a third step, 20 µl of enzyme solution (1 µM human carbonic anhydrase isoenzyme II from erythrocytes (Sigma-Aldrich), dissolved in potassium phosphate buffer) incubated for 60 min at room temperature and the fluorescence signal (Tecan Ultra® fluorescence reader; excitation wavelength: 280 nm; emission wavelength: 465 nm) read at the end of the preincubation period (FLU-1). After the preincubation time, 20 µl of aqueous dansylamide solution (1 mM dansylamide (Sigma-Aldrich), dissolved in hydrochloric acid) were added and the fluorescence signal read every 10 min for a period of 60 min at 37°C. For calculation, the fluorescence data of the time point 60 min (FLU-2) were used. The total volume of assay mixture amounted to 208 µl. […] Data were expressed as % inhibition after calculation by the formula: % inhibition = 100((1-(FLU-2_cpd-FLU-2_blank-FLU-1_cpd+FLU-1_blank)/(FLU-2_control-FLU-2_blank-FLU-1_control-FLU-1_blank)) [formula] […]

Row | IC50 [2] | SMILES | food intake [1]
1 |  | NS(=O)(=O)N1CCC2(CC1)CC(=O)c1ccccc1O2 [Example 1] | 83 % of control
2 | 6.6 µM | NS(=O)(=O)N1CCC2(CC1)CC(=O)c1cc(Br)ccc1O2 [Example 2] | 
